According to patent US8486374B2, “Hydrophilic, non-aqueous pharmaceutical carriers and compositions and uses” (Foamix Ltd., priority 2004, dated 2013):
Blank lines part the entries; values can stand above or below the compound they belong to.

How the values were obtained:
[1] = Chemical stability: amount of active agent in foam by HPLC on storage; format: physicochemical
Method: The amount of active agent present is analyzed in foam expelled from various pressurized canisters containing foam formulations using HPLC. Analysis is carried out at zero time and at appropriate time intervals thereafter. The canisters are stored in controlled temperature incubators at 5° C., at 25° C., at, 40° C. and at 50° C. At appropriate time intervals canisters are removed and the amount of active agent in the foam sample is measured. […] All samples were stored at 50° C. for 4 weeks, in order to assess their stability. The following table provides the results of this short-term stability study, which indicated high compatibility between the polyol composition and the steroid drugs, which are known to be temperature-sensitive.

[2] = anti-inflammatory steroids at typical concentration in topical products (triamcinolone acetonide 0.025%-0.1% medium, 0.5% high); cited from earlier work
[3] = Shakability of the composition; format: physicochemical
Description: ‘Shakability’ means that the composition contains some or sufficient flow to allow the composition to be mixed or remixed on shaking. That is, it has fluid or semi fluid properties. A breakable foam is that is thermally stable, yet breaks under sheer force.
‘Shakability’ means that the composition contains some or sufficient flow to allow the composition to be mixed or remixed on shaking. That is, it has fluid or semi fluid properties. In some very limited cases it may still be possible to have a foamable composition which is flowable but not apparently shakable.

[4] = Foam appearance (color, odor, form); format: physicochemical; design: key to ODOR: No odor (N.O.); key to COLOR: white (W)
[5] = Predicted physical characteristics of the resultant foam after adding an active agent; format: physicochemical; conditions: predicted on adding the active (BMV […] w/w; estradiol hemihydrate about 0.0051% w/w) with modulating agent to the carrier of the example at the place
[6] = in mineral oil and other commonly used ointment solvents; cited from earlier work
[7] = active agent in stock of PEG-400 97.5, hydroxypropyl cellulose 0.5, steareth 2 2.0 (first Example 29)
[8] = active agent in stock of propylene glycol 46, glycerin 33, dimethyl isosorbide 15, stearyl alcohol, hydroxypropyl cellulose, laureth-4, GMS/PEG 100 stearate (Example 30)
[9] = active agent in stock of propylene glycol 91, stearyl alcohol 2, Klucel EF 2, laureth-4 2, glyceryl monostearate/PEG 100 stearate 3 (second Example 29)

% Degradation after 4 weeks at 50° C. ([1]; 4 weeks): 0%
Compound: CCC(=O)OCC(=O)[C@@]1(OC(=O)CC)[C@@H](C)C[C@H]2[C@@H]3CCC4=CC(=O)C=C[C@]4(C)[C@@]3(F)[C@@H](O)C[C@@]21C [Bethamethasone Dipropionate]
Relative Potency [2]: High Potency

SHAKABILITY [3, 7]: Yes
SHAKABILITY [3, 8]: Yes
SHAKABILITY [3, 9]: Yes
COLOR [4, 7]: W
ODOR [4, 7]: N.O
COLOR [4, 8]: W
ODOR [4, 8]: N.O
COLOR [4, 9]: W
ODOR [4, 9]: N.O
effect on the physical characteristics of the resultant foam [5]: minimal effect
Compound: CCCCC(=O)O[C@]1(C(=O)CO)[C@@H](C)C[C@H]2[C@@H]3CCC4=CC(=O)C=C[C@]4(C)[C@@]3(F)[C@@H](O)C[C@@]21C [Betamethasone 17 valerate micronized, Betamethasone 17 valerate]
Relative Potency [2]: Medium Potency

Compound: CC(=O)OCC(=O)[C@@]12OC(C)(C)O[C@@H]1C[C@H]1[C@@H]3C[C@H](F)C4=CC(=O)C=C[C@]4(C)[C@@]3(F)[C@@H](O)C[C@@]12C [Flucinonide]
Relative Potency [2]: Medium Potency

Compound: C[C@H]1C[C@H]2[C@@H]3CCC4=CC(=O)C=C[C@]4(C)[C@@]3(F)[C@@H](O)C[C@]2(C)[C@@]1(OC(=O)c1ccccc1)C(=O)CO [Betamethasone-17-benzoate]
Relative Potency [2]: High Potency

Compound: CC(=O)OCC(=O)[C@@]1(O)CC[C@H]2[C@@H]3CCC4=CC(=O)CC[C@]4(C)[C@H]3[C@@H](O)C[C@@]21C [Hydrocortison Acetate]
Relative Potency [2]: Low Potency

Compound: CCCC(=O)O[C@]1(C(=O)CCl)[C@H](C)C[C@@H]2[C@@H]3CCC4=CC(=O)C=C[C@]4(C)[C@]3(F)C(=O)C[C@@]21C [Clobetasone-17-butyrate]
Relative Potency [2]: Medium Potency

Compound: CCC(=O)O[C@]1(C(=O)COC(C)=O)CC[C@H]2[C@@H]3C[C@H](C)C4=CC(=O)C=C[C@]4(C)[C@H]3[C@@H](O)C[C@@]21C [Methylprednisolone aceponate]
Relative Potency [2]: High Potency

effect on the physical characteristics of the resultant foam [5]: minimal effect
Compound: C[C@]12CC[C@@H]3c4ccc(O)cc4CC[C@H]3[C@@H]1CC[C@@H]2O [Estradiol hemihydrate]

Compound: CCOC(=O)O[C@]1(C(=O)COC(=O)CC)CC[C@H]2[C@@H]3CCC4=CC(=O)C=C[C@]4(C)[C@H]3[C@@H](O)C[C@@]21C [Prednicarbate]
Relative Potency [2]: Medium Potency

Compound: CC1(C)O[C@@H]2C[C@H]3[C@@H]4CCC5=CC(=O)C=C[C@]5(C)[C@H]4[C@@H](O)C[C@]3(C)[C@]2(C(=O)CO)O1 [Desonide]
Relative Potency [2]: Low Potency

Compound: CCCC(=O)O[C@]1(C(=O)CO)CC[C@H]2[C@@H]3CCC4=CC(=O)CC[C@]4(C)[C@H]3[C@@H](O)C[C@@]21C [Hydrocortison Butyrate]
% Degradation after 4 weeks at 50° C. ([1]; steroid in TECH-PG 032, stored at 50° C. for 4 weeks): 2.6%
% Degradation after 4 weeks at 50° C. ([1]; steroid in TECH-PG 033, stored at 50° C. for 4 weeks): 2.8%

SHAKABILITY [3, 7]: Yes
SHAKABILITY [3, 9]: Yes
COLOR [4, 7]: W
ODOR [4, 7]: N.O
COLOR [4, 9]: W
ODOR [4, 9]: N.O
Compound: C/C(=C\C(=O)OCCCCCCCCC(=O)O)C[C@@H]1OC[C@H](C[C@@H]2O[C@H]2[C@@H](C)[C@H](C)O)[C@@H](O)[C@H]1O [Mupirocin]
solubility [6]: practically insoluble

Compound: CCC(=O)OCC(=O)[C@@]1(OC(=O)CC)[C@H](C)C[C@H]2[C@H]3[C@H]([C@@H](O)C[C@@]21C)[C@@]1(C)C=CC(=O)C=C1C[C@H]3Cl [Alcometasone dipropionate]
Relative Potency [2]: Medium Potency
